Patent publication US8153596B2, “Use of SH2 STAT3/STAT1 peptidomimetics as anticancer drugs” (University of South Florida, priority 2006, dated 2012)
Where “and” joins values, the source holds several entries; their conditions need not be identical. Identical values can stand only once. Like-named read-outs stand apart in the source and are kept apart here.

Tests used:
[1] = system: v-Src transformed fibroblasts; conditions: constitutively active STAT3-dependant v-Src transformed fibroblasts; cited from earlier work
STAT3:STAT3 = target: T1, STAT3:STAT3 (Homo sapiens, UniProt P40763); assay: EMSA of STAT3:STAT3 dimer DNA binding, nuclear extracts preincubated with peptidomimetic, radiolabeled hSIE probe; assay type: biochemical
T1 construct: Nuclear extracts containing active STAT1 and STAT3 were preincubated with or without peptidomimetics; endogenous in cells; host or cells: nuclear extracts
T1 sequence (P40763 2-770 limits assumed, species assumed): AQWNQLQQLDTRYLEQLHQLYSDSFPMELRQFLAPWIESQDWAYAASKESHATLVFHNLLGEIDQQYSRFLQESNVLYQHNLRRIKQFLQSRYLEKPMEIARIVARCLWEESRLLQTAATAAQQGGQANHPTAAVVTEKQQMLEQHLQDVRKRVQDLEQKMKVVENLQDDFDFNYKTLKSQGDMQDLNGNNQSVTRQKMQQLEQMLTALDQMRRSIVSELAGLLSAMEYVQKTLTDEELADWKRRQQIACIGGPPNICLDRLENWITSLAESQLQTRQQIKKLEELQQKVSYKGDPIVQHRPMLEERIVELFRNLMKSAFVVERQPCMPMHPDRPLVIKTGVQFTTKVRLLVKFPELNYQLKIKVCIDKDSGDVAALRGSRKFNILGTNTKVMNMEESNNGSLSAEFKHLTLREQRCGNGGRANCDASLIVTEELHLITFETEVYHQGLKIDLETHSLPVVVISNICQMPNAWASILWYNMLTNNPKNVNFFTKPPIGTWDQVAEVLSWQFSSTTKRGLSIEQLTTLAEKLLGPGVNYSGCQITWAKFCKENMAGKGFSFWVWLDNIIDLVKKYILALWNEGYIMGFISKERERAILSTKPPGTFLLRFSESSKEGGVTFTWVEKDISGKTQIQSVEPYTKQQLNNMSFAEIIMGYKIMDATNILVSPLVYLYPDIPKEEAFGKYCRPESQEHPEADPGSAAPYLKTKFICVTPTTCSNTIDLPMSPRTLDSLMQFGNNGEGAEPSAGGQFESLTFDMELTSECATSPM
Procedure: (§1) Evaluation was carried out through pre-incubation of specific concentrations of peptidomimetics with nuclear extracts containing STAT1 and STAT3 for 30 minutes at room temperature before incubation with radiolabeled hSIE oligonucleotide probes and ESMA analysis. Standard peptide synthetic procedures using HBTU and DIPEA were employed to furnish the library of functionalized inhibitors.
as §1

STAT1:STAT1 = target: T2, STAT1:STAT1 (Homo sapiens, UniProt P42224); assay: EMSA of STAT1:STAT1 dimer DNA binding, nuclear extracts preincubated with peptidomimetic, radiolabeled hSIE probe; assay type: biochemical
T2 construct: Nuclear extracts containing active STAT1 and STAT3 were preincubated with or without peptidomimetics; endogenous in cells; host or cells: nuclear extracts
T2 sequence (P42224 2-750 limits assumed): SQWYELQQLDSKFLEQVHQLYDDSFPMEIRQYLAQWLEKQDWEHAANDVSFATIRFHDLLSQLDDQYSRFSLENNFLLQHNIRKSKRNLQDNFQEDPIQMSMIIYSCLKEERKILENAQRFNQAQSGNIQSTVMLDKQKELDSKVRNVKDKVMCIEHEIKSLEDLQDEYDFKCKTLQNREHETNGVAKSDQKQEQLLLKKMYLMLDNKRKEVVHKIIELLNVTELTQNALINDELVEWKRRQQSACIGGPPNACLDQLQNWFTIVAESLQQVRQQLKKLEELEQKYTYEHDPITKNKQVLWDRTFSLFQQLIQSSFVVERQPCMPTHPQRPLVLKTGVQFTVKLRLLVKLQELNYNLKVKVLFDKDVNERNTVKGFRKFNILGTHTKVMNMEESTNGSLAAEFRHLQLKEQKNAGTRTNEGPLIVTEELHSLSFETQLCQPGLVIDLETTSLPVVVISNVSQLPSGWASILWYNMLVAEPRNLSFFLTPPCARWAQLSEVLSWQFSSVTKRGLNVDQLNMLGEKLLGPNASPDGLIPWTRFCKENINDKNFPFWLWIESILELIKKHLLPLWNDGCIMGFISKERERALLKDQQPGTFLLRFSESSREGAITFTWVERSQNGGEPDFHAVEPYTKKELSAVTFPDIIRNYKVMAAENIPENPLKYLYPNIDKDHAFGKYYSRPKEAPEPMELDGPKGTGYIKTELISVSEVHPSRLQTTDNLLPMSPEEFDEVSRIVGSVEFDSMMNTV
Procedure: as §1, §1

IC50 (STAT3:STAT3; nuclear extracts preincubated 30 min at room temperature, hSIE probe, EMSA, means of three experiments, read-out: STAT3:STAT3 IC50 values) | IC50 (STAT1:STAT1; nuclear extracts preincubated 30 min at room temperature, hSIE probe, EMSA, means of three experiments, read-out: STAT1:STAT1 IC50 values) | SMILES | cell growth suppression [1] | IC50 (STAT3:STAT3) | IC50 (STAT1:STAT1)
 |  | CC(C)CC(NC(=O)C(Cc1ccc(OP(=O)(O)O)cc1)NC(=O)c1ccc(C#N)cc1)C(=O)O (stereo not shown) [ISS610] | suppress cell growth significantly |  | 
 |  | CC(C)CC(NC(=O)C(Cc1ccc(OP(=O)(O)O)cc1)NC(=O)c1ccc(C#N)cc1)C(=O)NC(C)C (stereo not shown) [ISS834] |  | 760 µM | 21 µM
 |  | CC(C)CC(NC(=O)C(Cc1ccc(OP(=O)(O)O)cc1)NC(=O)c1ccc(C#N)cc1)C(=O)NC1CCCCC1 (stereo not shown) [ISS836] |  | 605 µM | 25 µM
560 µM | 1.4 µM and 1 µM | COc1cccc(NC(=O)[C@H](CC(C)C)NC(=O)[C@H](Cc2ccc(OP(=O)(O)O)cc2)NC(=O)c2ccc(C#N)cc2)c1 [ISS840] |  |  | 
